For experiment [1], the system named is 5-alpha steroid reductase. Put plainly: Testosterone metabolism in human and rat heart microsomal suspensions (HPLC of metabolites). It is filed as biochemical. Particulars: FIG. 3.
For experiment [2], the system named is androgen receptor expression. Description: Androgen receptor expression in cultivated rat heart muscle cells (real-time RT-PCR). Particulars: testosterone added to culture medium (100 μM); isolated rat heart muscle cells; FIG. 5c. It is filed as cell-based. In general terms: In qPCR the cycle at which signal appears reflects the starting amount.
Procedure: (§1) Total RNA was isolated from heart tissue using the Total RNA Isolation Kit (Macherey-Nagel, Germany) according to the manufacturer's instructions. The quality of the isolated RNA was assessed by evaluating the ribosomal bands on agarose gel (1%). Of each sample, 2 μg RNA was used for reverse transcription. RNA and random primer (Roche Diagnostics, Mannheim, Germany) were preheated at 70° C. for 10 min. and subsequently incubated with 5×RT-AMV buffer (Roche Diagnostics, Mannheim, Germany), dNTPs (1 mM; Roche Diagnostics, Mannheim, Germany), 40U RNAse inhibitor (Stratagene, Amsterdam, Netherlands) and 20U AMV-RT (Promega, Mannheim, Germany) at a total volume of 20 μl for 60 min. at 42° C. […]
(§2) The studies were conducted With a lightcyler (Roche Diagnostics, Mannheim, Germany). […] By the end of each extension phase, fluorescence was measured to be used for evaluation. To guarantee that no unspecific primer dimers are measured, fluorescence detection was conducted above the temperature characteristic of primer dimers (as assessed in preliminary studies). Amplification was followed by a melting curve analysis, measuring fluorescence by slowly increasing the temperature of the DNA synthesis products from 65° C. to 95° C. […] The exact amount of the obtained PCR product was determined by co-amplification of standardized cardiac cDNA and according to the manufacturer's instructions. […]
In another experiment the test system is alpha-MHC expression. The following applies: testosterone substitution (100 μM, 8 h); rat heart muscle cells; FIGS. 7 and 8.

Structures are written as SMILES.

Procedure for alpha-MHC expression: as §1, §2

In the case of `CC(C)(C)NC(=O)[C@H]1CC[C@H]2[C@@H]3CC[C@H]4NC(=O)C=C[C@]4(C)[C@H]3CC[C@]12C` [finasteride], the 5-alpha-DHT production decreased in experiment [1] (finasteride 25 μM, heart microsomes, 100 μM testosterone, 4 h at 37° C.) is 60%. Further, in experiment [1] (inhibition of 5-alpha reductase), the “production of dihydrotestosterone in the heart tissue” value was “reduced and normalized”.
As to `C[C@]12CC[C@H]3[C@@H](CCC4=CC(=O)CC[C@@]43C)[C@@H]1CC[C@@H]2O` [testosterone], the androgen receptor expression result in experiment [2] is “reduces and normalizes”. Also, the alpha-MHC expression result in the experiment on alpha-MHC expression is listed as “normalization”.

(Values after patent US20060258632A1, “Methods and agents for treating cardiovascular diseases” (Fraunhofer-Gesellschaft zur Forderung der angewandten …, priority 2002, published 2006).)
